Results on 13 compounds are retold here after US9737535B2, “Methods for treating cancer using TOR kinase inhibitor combination therapy comprising administering substituted pyrazino[2,3-b]pyrazines” (Signal Pharmaceuticals, LLC, priority 2014, dated 2017).

SMILES strings stand for the structures. Counter-ions that a name gives are not always drawn.

Holding throughout (assay): Anti-proliferation assay (ATPLite), Chalice synergy score
What all share (assay type): cell-based

For assay [1], the system named is BT-20. Set-up: scale not given here. To be noted: Compound 1 in combination with the named second active agent, 72 h, mean of n = 3 experiments in triplicate. The source says: (§1) Cells were thawed from a liquid nitrogen preserved state.
(§2) The calculation for synergy score is provided below.
(§3) If T≧V0:100*[1−(T−V0)/(V−V0)]

The subject of assay [2] is HCC-1187. Set-up: scale not given here. Particulars: Compound 1 in combination with the named second active agent, 72 h, mean of n = 3 experiments in triplicate.
Excerpt: as §1, §2, §3

The subject of assay [3] is HCC-1500. Further details: scale not given here. Particulars: Compound 1 in combination with the named second active agent, 72 h, mean of n = 3 experiments in triplicate.
Excerpt: as §1, §2, §3

The subject of assay [4] is BT-549. Particulars: Compound 1 in combination with the named second active agent, 72 h, mean of n = 3 experiments in triplicate.
Excerpt: as §1, §2, §3

Assay [5] deals with HCC-1428. Particulars: Compound 1 in combination with the named second active agent, 72 h, mean of n = 3 experiments in triplicate.
Excerpt: as §1, §2, §3

Assay [6] has as its system HCC-1806. Particulars: Compound 1 in combination with the named second active agent, 72 h, mean of n = 3 experiments in triplicate.
Excerpt: as §1, §2, §3

Assay [7] has as its system HCC-1937. Particulars: Compound 1 in combination with the named second active agent, 72 h, mean of n = 3 experiments in triplicate.
Excerpt: as §1, §2, §3

Assay [8] has as its system HCC70. To be noted: Compound 1 in combination with second active agent; HCC-70; mean self-cross + 2σ threshold 3.45.
Excerpt: as §1, §2, §3

In assay [9] the test system is Hs-578-T. To be noted: Compound 1 in combination with second active agent, mean self-cross + 2σ threshold 4.09.
Excerpt: as §1, §2, §3

For assay [10], the system named is MCF7. To be noted: Compound 1 in combination with second active agent, mean self-cross + 2σ threshold 3.07.
Excerpt: as §1, §2, §3

Assay [11] deals with MDA-MB-157. Particulars: Compound 1 in combination with second active agent, mean self-cross + 2σ threshold 4.68.
Excerpt: as §1, §2, §3

The subject of assay [12] is MDA-MB-231. To be noted: Compound 1 in combination with second active agent, mean self-cross + 2σ threshold 2.61.
Excerpt: as §1, §2, §3

Assay [13] has as its system MDA-MB-436. Particulars: Compound 1 in combination with second active agent, mean self-cross + 2σ threshold 1.91.
Excerpt: as §1, §2, §3

Assay [14] relates to BT-474. Particulars: Compound 1 in combination with the named second active agent, 72 h, mean of n = 3 experiments in triplicate.
Excerpt: as §1, §2, §3

Assay [15] has as its system MDA-MB-468. To be noted: Compound 1 in combination with second active agent, mean self-cross + 2σ threshold 4.66.
Excerpt: as §1, §2, §3

Turning to `O=C(NC(NC(=S)Nc1ccc(F)c([N+](=O)[O-])c1)C(Cl)(Cl)Cl)C(c1ccccc1)c1ccccc1` (stereo not drawn) [CGK733], the Synergy score in assay [1] is 0.72; in assay [2], 2.01; in assay [3], 0.55; in [4] it was 1.74; in assay [5], 0.82; in [6], 1.51. Moreover, the Synergy score was found to be 1.48 in assay [7]; 3.03 in assay [8]; 2.45 in assay [9]; 0.66 in assay [10]; 1.88 in assay [11]; 1.64 in assay [12]. Further, the Synergy score in assay [13] is on record as 0.84.

For the compound `C[C@@H](Oc1cc(-c2cnn(C3CCNCC3)c2)cnc1N)c1c(Cl)ccc(F)c1Cl` [Crizotinib], the Synergy score was 2.70 in assay [1]; 2.32 in [2]; 1.07 in assay [14]; 0.94 in assay [4]; 3.08 in assay [6]; 2.90 in assay [7]. The Synergy score in assay [8] is 3.31; in [10] it was 3.06; in [11], 2.97; in assay [13], 1.30.

With `CCN(CCO)CCCOc1ccc2c(Nc3cc(CC(=O)Nc4cccc(F)c4)[nH]n3)ncnc2c1` [AZD1152-HQPA (Barasertib)], the Synergy score in assay [1] is reported as 6.90; in assay [2], 6.69; in [3], 5.73; in assay [14] it was 1.51; in assay [5] it was 1.95; in assay [6] it was 1.32. For the same compound, the Synergy score in assay [7] came out at 2.29.

Take `C[C@@H]1CN(CC(=O)Nc2ccc3c(c2)Cc2cccc(-c4cc(=O)cc(N5CCOCC5)o4)c2S3)C[C@H](C)O1` [KU-60019]: the Synergy score in assay [1] came out at 0.05; in [2] it was 1.24; in [3], 0.98; in assay [4], 0.18; in [5], 0.11; in assay [6], 0.38. Also, the Synergy score was 0.04 in assay [7]; 0.21 in assay [8]; 0.11 in [9]; 0.04 in assay [10]; 0.13 in [11]; 0.08 in assay [12]. The values for the Synergy score in assay [13] and in assay [15] were 0.13 and 0.19, respectively.

For the compound `N#Cc1c(O)c2c(-c3ccc(-c4ccccc4O)cc3)csc2[nH]c1=O` [Compound A769662], the Synergy score in assay [1] was 0.11; in assay [2], 3.70; in assay [3], 0.80; in assay [4] it was 0.29; in [5], 0.34; in assay [6], 0.54. Moreover, the Synergy score was found to be 0.07 in [7]; 0.07 in [8]; 0.39 in [9]; 0.46 in assay [10]; 0.70 in assay [11]; 0.17 in assay [12]. Also, the Synergy score in assay [13] amounted to 0.06; in [15] it was 0.77.

Turning to `CC[C@@H]1C(=O)N(C)c2cnc(Nc3ccc(C(=O)NC4CCN(C)CC4)cc3OC)nc2N1C1CCCC1` [BI 2536], the Synergy score in assay [1] was found to be 5.18; in [2], 3.28; in [3] it was 4.47; in assay [14] it was 9.25; in assay [4], 6.91; in [6], 0.43. The Synergy score was 16.20 in assay [7]; 12.60 in assay [8]; 4.48 in assay [9]; 3.30 in [10]; 5.08 in assay [11]; 2.92 in [12]. Besides, the Synergy score is 2.95 in assay [13] and 9.61 in [15].

With `C/C=C1\NC(=O)[C@H]2CSSCC/C=C/[C@H](CC(=O)N[C@H](C(C)C)C(=O)N2)OC(=O)[C@H](C(C)C)NC1=O` [Romidepsin], the Synergy score amounted to 6.74 in [8]; 5.71 in [11]; 9.27 in assay [12]; 5.84 in [13]; 7.26 in assay [15].

Turning to `CCN(CCO)CCCOc1ccc2c(Nc3cc(CC(=O)Nc4cccc(F)c4)[nH]n3)ncnc2c1` [AZD1152-HQPA(Barasertib)], the Synergy score in assay [8] is 9.50; in assay [9], 2.43; in [10] it was 2.57; in assay [11] it was 1.81; in [12], 1.42; in assay [13], 5.60. In assay [15], the Synergy score is reported as 9.13.

For the compound `Nc1ccccc1NC(=O)c1ccc(CNC(=O)OCc2cccnc2)cc1` [MS-275], the Synergy score is 9.37 in assay [8]; 8.44 in assay [9]; 7.69 in assay [10]; 8.10 in [11]; 11.70 in assay [12]; 7.83 in [13]. The Synergy score in assay [15] came out at 9.25.

As to `CC1=C(C(=O)Nc2cc3cn[nH]c3cc2F)C(c2ccc(C(F)(F)F)cc2)CC(=O)N1` (stereo not drawn) [GSK429286A], the Synergy score in [2] is listed as 4.54; in [3] it was 0.19; in [4] it was 1.72; in assay [6], 0.51; in [7], 0.05; in assay [9], 3.35. Moreover, the Synergy score is 0.19 in [10]; 1.95 in assay [11]; 2.14 in [12]; 0.57 in [13]; 0.13 in assay [15].

Turning to `Nc1ccn([C@@H]2O[C@H](CO)[C@@H](O)C2(F)F)c(=O)n1` [Gemcitabine Hydrochloride], the Synergy score was found to be 1.85 in assay [1]; 1.83 in assay [2]; 3.72 in assay [3]; 0.17 in assay [14]; 1.86 in assay [4]; 0.84 in assay [6]. Besides, the Synergy score in assay [7] is listed as 3.78; in [9] it was 0.96; in [10], 0.38; in [11], 2.53; in [12], 2.51; in assay [13] it was 3.05. Moreover, the Synergy score in assay [15] stood at 5.52.

Take `O=C(/C=C/c1cccc(S(=O)(=O)Nc2ccccc2)c1)NO` [Belinostat]: the Synergy score in assay [8] is recorded as 10.10; in assay [9], 7.48; in assay [10] it was 7.66; in assay [11] it was 7.58; in [12], 12.40; in assay [13], 7.84. For the same compound, the Synergy score in assay [15] turned out to be 6.75.

Turning to `CNC(=O)c1cc(Oc2ccc(NC(=O)Nc3ccc(Cl)c(C(F)(F)F)c3)cc2)ccn1` [Sorafenib], the Synergy score in assay [1] is reported as 1.16; in assay [3], 0.69; in assay [14] it was 2.32; in [4] it was 0.00; in assay [7] it was 2.10; in assay [8], 2.51. For the same compound, the Synergy score was found to be 1.65 in assay [9], 1.18 in [10], 0.56 in assay [11] and 1.55 in [12].
